# According to patent publication US12617779B2, “Self degradation-type CDK9 inhibitor prodrug and liposome encapsulating same” (Sumitomo Pharma Co., Ltd., priority 2021, dated 2026):
# Structures can show the parent of a compound that is named as a salt.
# Assay: Liposome encapsulation test, remote loading method (Experimental Example 4);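 on encapsulation efficiency: encapsulated compound as percent of compound amount introduced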
# Format: physicochemical
# Details: for encapsulation rate, encapsulation efficiency and encapsulated compound content per 50 μmol of lipid: remote loading into liposomes
# Procedure: For Example 1, Example 2, Example 3, Example 4, Example 5, Example 6, Example 7, Example 8, Example 9, Example 10, Example 11, Example 12, Example 13, Example 14, Example 15, Example 16, Example 17 and Alvocidib, an encapsulation test in liposomes was performed using a remote loading method.
# <Liposome Encapsulation Test of Example 1, Example 2, Example 5, Example 6, Example 9, Example 10, Example 11, Example 12, Example 13, Example 14, Example 15, and Example 16>
# Hydrogenated soybean phosphatidylcholine (COATSOME NC-21E, manufactured by NOF CORPORATION, 7.77 g), cholesterol (manufactured by Sigma, 2.78 g) and distearoylphosphatidylethanolamine-methoxypolyethylene glycol 2000 (SUNBRIGHT DSPE-020CN, manufactured by NOF CORPORATION, 2.47 g) were dissolved in tert-butyl alcohol (720 mL) warmed to 65° C. The solution was placed in an eggplant flask and frozen in a dry ice-acetone bath, and then the tert-butyl alcohol was removed by evaporation under reduced pressure to give a lipid mixture.
# To the above lipid mixture was added a 250 mM ammonium sulfate solution (240 mL), and the mixture was warmed to 65° C., and dispersed by a homogenizer (ULTRA-TURRAX, manufactured by IKA) to give a crude liposome dispersion. Then, the crude liposome dispersion was dispersed by a high pressure homogenizer (Nano-Mizer NM2, manufactured by YOSHIDA KIKAI CO., LTD.) at a pressure of 100 MPa to give liposomes with an average particle size (Z-average) of about 80 nm. The liposome outer solution was replaced with 10 mM L-histidine/10% sucrose solution (pH 6.5) using a dialysis cassette (Slide-A-Lyzer G2 Dialysis Cassettes 20K MWCO, manufactured by Thermo Scientific) to give an empty liposome solution. The solution was filtered through a 0.22 μm membrane filter, and a 10 mM L-histidine/10% sucrose solution (pH 6.5) was added thereto to adjust the total lipid concentration to 50 mM (50 μmol/mL). The lipid concentration was determined by quantitatively analyzing cholesterol using HPLC and calculating the total lipid concentration from the lipid mixing ratio. The amount for the above adjustment was increased or decreased as appropriate.
# The compound (10 mg) was weighed, and the empty liposome solution (1 mL) with a total lipid concentration of 50 mM was added thereto. The solution was adjusted to pH 5 to 6 with 1 mol/L hydrochloric acid or 1 mol/L aqueous sodium hydroxide solution as necessary, warmed in a 65° C. water bath for 2 to 3 minutes, and ice-cooled. The mixture was centrifuged at 15,000×g for 5 minutes to precipitate and remove insoluble substances.
# The liposome solution (100 μL) after removing insoluble substances was taken on an ultrafiltration filter (Amicon Ultra, 100K, 0.5 mL, manufactured by Merck) and centrifuged at 4° C., 15,000×g for 10 minutes. The compound concentrations in the liposome solution after removing insoluble substances and in the filtrate after ultrafiltration were determined by HPLC, and the encapsulation rate, encapsulation efficiency, and encapsulated compound content per 50 μmol of lipid were calculated by the following formula.
# The measurement conditions for HPLC are as follows.
# An empty liposome solution with a total lipid concentration of 75 mM was prepared by the same procedure as for the above example compound group. Each compound was weighed, and the empty liposome solution with a total lipid concentration of 75 mM was added thereto such that the compound concentration became 15 mg/mL. The solution was adjusted to pH 5 to 6 with 1 mol/L hydrochloric acid or 1 mol/L aqueous sodium hydroxide solution, warmed in a 65° C. water bath for 3 minutes, and ice-cooled. Hereafter, the encapsulation rate and encapsulation efficiency were calculated by the same procedure as for the above example compound group. The encapsulated compound content per 50 μmol of lipid was calculated by the following formula.
# [formula] <Liposome Encapsulation Test of Example 7, Example 8 and Example 17> […]
# [1] = Compound concentration when encapsulated 10 mg/mL
# [2] = Compound concentration when encapsulated 15 mg/mL
SMILES,Encapsulated compound content per 50 μmol of lipid [1] [mg],Encapsulation efficiency [1] [%],Encapsulation rate [1] [%],"encapsulation rate, encapsulation efficiency and encapsulated compound content per 50 μmol of lipid",Encapsulated compound content per 50 μmol of lipid [2] [mg],Encapsulation efficiency [2] [%],Encapsulation rate [2] [%]
"CCN(C[C@@H]1CCCCN1)C(=O)Oc1cc(O)c2c(=O)cc(-c3ccccc3Cl)oc2c1[C@H]1CCN(C)C[C@H]1O [Example 1, 2-(2-chlorophenyl)-5-hydroxy-8-[(3S,4R)-3-hydroxy-1-methylpiperidin-4-yl]-4-oxo-4H-1-benzopyran-7-yl ethyl{[(2S)-piperidin-2-yl]methyl}carbamate ditrifluoroacetate]",7.3,73.2,82.9,high,,,
"CCN(C[C@H]1CCCCN1)C(=O)Oc1cc(O)c2c(=O)cc(-c3ccccc3Cl)oc2c1[C@H]1CCN(C)C[C@H]1O [Example 2, 2-(2-chlorophenyl)-5-hydroxy-8-[(3S,4R)-3-hydroxy-1-methylpiperidin-4-yl]-4-oxo-4H-1-benzopyran-7-yl ethyl{[(2R)-piperidin-2-yl]methyl}carbamate]",7.1,71.1,81.1,high,,,
"CN1CC[C@H](c2c(OC(=O)N(C)C[C@@H]3CCCCN3)cc(O)c3c(=O)cc(-c4ccccc4Cl)oc23)[C@H](O)C1 [Example 3, 2-(2-chlorophenyl)-5-hydroxy-8-[(3S,4R)-3-hydroxy-1-methylpiperidin-4-yl]-4-oxo-4H-1-benzopyran-7-yl methyl{[(2S)-piperidin-2-yl]methyl}carbamate]",,,,high,6.0,60.2,61.0
"CN1CC[C@H](c2c(OC(=O)N(C)C[C@H]3CCCCN3)cc(O)c3c(=O)cc(-c4ccccc4Cl)oc23)[C@H](O)C1 [Example 4, 2-(2-chlorophenyl)-5-hydroxy-8-[(3S,4R)-3-hydroxy-1-methylpiperidin-4-yl]-4-oxo-4H-1-benzopyran-7-yl methyl{[(2R)-piperidin-2-yl]methyl}carbamate]",,,,high,7.1,71.2,72.2
"CCCN(C[C@@H]1CCCCN1)C(=O)Oc1cc(O)c2c(=O)cc(-c3ccccc3Cl)oc2c1[C@H]1CCN(C)C[C@H]1O [Example 5, 2-(2-chlorophenyl)-5-hydroxy-8-[(3S,4R)-3-hydroxy-1-methylpiperidin-4-yl]-4-oxo-4H-1-benzopyran-7-yl {[(2S)-piperidin-2-yl]methyl}propylcarbamate]",7.2,71.6,75.7,high,,,
"CCCN(C[C@H]1CCCCN1)C(=O)Oc1cc(O)c2c(=O)cc(-c3ccccc3Cl)oc2c1[C@H]1CCN(C)C[C@H]1O [Example 6, 2-(2-chlorophenyl)-5-hydroxy-8-[(3S,4R)-3-hydroxy-1-methylpiperidin-4-yl]-4-oxo-4H-1-benzopyran-7-yl {[(2R)-piperidin-2-yl]methyl}propylcarbamate]",6.6,65.9,73.8,high,,,
"CCN(CC1CCCCN1)C(=O)Oc1cc(O)c2c(=O)cc(-c3ccccc3Cl)oc2c1[C@H]1CCN(C)C[C@H]1O (stereo partly drawn) [Example 7, 2-(2-chlorophenyl)-5-hydroxy-8-[(3S,4R)-3-hydroxy-1-methylpiperidin-4-yl]-4-oxo-4H-1-benzopyran-7-yl ethyl[(piperidin-2-yl)methyl]carbamate dihydrochloride]",7.3,72.8,81.1,high,,,
"CN1CC[C@H](c2c(OC(=O)N(C)CC3CCCCN3)cc(O)c3c(=O)cc(-c4ccccc4Cl)oc23)[C@H](O)C1 (stereo partly drawn) [Example 8, 2-(2-chlorophenyl)-5-hydroxy-8-[(3S,4R)-3-hydroxy-1-methylpiperidin-4-yl]-4-oxo-4H-1-benzopyran-7-yl methyl[(piperidin-2-yl)methyl]carbamate]",6.1,61.1,60.6,high,,,
"CCCN(CC1CCCCN1)C(=O)Oc1cc(O)c2c(=O)cc(-c3ccccc3Cl)oc2c1[C@H]1CCN(C)C[C@H]1O (stereo partly drawn) [Example 9, 2-(2-chlorophenyl)-5-hydroxy-8-[(3S,4R)-3-hydroxy-1-methylpiperidin-4-yl]-4-oxo-4H-1-benzopyran-7-yl [(piperidin-2-yl)methyl]propylcarbamate]",7.2,72.1,78.5,high,,,
"CC(C)N(CC1CCCCN1)C(=O)Oc1cc(O)c2c(=O)cc(-c3ccccc3Cl)oc2c1[C@H]1CCN(C)C[C@H]1O (stereo partly drawn) [Example 10, 2-(2-chlorophenyl)-5-hydroxy-8-[(3S,4R)-3-hydroxy-1-methylpiperidin-4-yl]-4-oxo-4H-1-benzopyran-7-yl [(piperidin-2-yl)methyl]propan-2-ylcarbamate]",2.3,23.0,22.8,,,,
"CN1CC[C@H](c2c(OC(=O)N(CCF)CC3CCCCN3)cc(O)c3c(=O)cc(-c4ccccc4Cl)oc23)[C@H](O)C1 (stereo partly drawn) [Example 11, 2-(2-chlorophenyl)-5-hydroxy-8-[(3S,4R)-3-hydroxy-1-methylpiperidin-4-yl]-4-oxo-4H-1-benzopyran-7-yl (2-fluoroethyl) [(piperidin-2-yl)methyl]carbamate]",4.6,46.1,45.5,,,,
"COCCN(CC1CCCCN1)C(=O)Oc1cc(O)c2c(=O)cc(-c3ccccc3Cl)oc2c1[C@H]1CCN(C)C[C@H]1O (stereo partly drawn) [Example 12, 2-(2-chlorophenyl)-5-hydroxy-8-[(3S,4R)-3-hydroxy-1-methylpiperidin-4-yl]-4-oxo-4H-1-benzopyran-7-yl (2-methoxyethyl) [(piperidin-2-yl)methyl]carbamate]",3.6,36.2,35.8,,,,
"CN1CC[C@H](c2c(OC(=O)N(CCC(F)(F)F)CC3CCCCN3)cc(O)c3c(=O)cc(-c4ccccc4Cl)oc23)[C@H](O)C1 (stereo partly drawn) [Example 13, 2-(2-chlorophenyl)-5-hydroxy-8-[(3S,4R)-3-hydroxy-1-methylpiperidin-4-yl]-4-oxo-4H-1-benzopyran-7-yl [(piperidin-2-yl)methyl](3,3,3-trifluoropropyl)carbamate]",3.5,34.6,35.2,,,,
"CN1CC[C@H](c2c(OC(=O)N(CCCC(F)(F)F)CC3CCCCN3)cc(O)c3c(=O)cc(-c4ccccc4Cl)oc23)[C@H](O)C1 (stereo partly drawn) [Example 14, 2-(2-chlorophenyl)-5-hydroxy-8-[(3S,4R)-3-hydroxy-1-methylpiperidin-4-yl]-4-oxo-4H-1-benzopyran-7-yl [(piperidin-2-yl)methyl](4,4,4-trifluorobutyl)carbamate]",2.8,28.4,26.6,,,,
